Test results reported in ChEMBL document CHEMBL5120855, “Potent 2,3-dihydrophthalazine-1,4-dione derivatives as dual inhibitors for mono-ADP-ribosyltransferases PARP10 and PARP15” (Eur J Med Chem, 2022).

Key:
[1] = target: Poly [ADP-ribose] polymerase 2 (Homo sapiens, UniProt Q9UGN5); assay: Inhibition of human PARP2 using NAD+ as substrate incubated for 10 mins by fluorescence based analysis
[2] = target: T1, Protein mono-ADP-ribosyltransferase PARP12 (Homo sapiens, UniProt Q9H0J9); assay: Inhibition of human PARP12
T1 sequence (Q9H0J9 whole entry): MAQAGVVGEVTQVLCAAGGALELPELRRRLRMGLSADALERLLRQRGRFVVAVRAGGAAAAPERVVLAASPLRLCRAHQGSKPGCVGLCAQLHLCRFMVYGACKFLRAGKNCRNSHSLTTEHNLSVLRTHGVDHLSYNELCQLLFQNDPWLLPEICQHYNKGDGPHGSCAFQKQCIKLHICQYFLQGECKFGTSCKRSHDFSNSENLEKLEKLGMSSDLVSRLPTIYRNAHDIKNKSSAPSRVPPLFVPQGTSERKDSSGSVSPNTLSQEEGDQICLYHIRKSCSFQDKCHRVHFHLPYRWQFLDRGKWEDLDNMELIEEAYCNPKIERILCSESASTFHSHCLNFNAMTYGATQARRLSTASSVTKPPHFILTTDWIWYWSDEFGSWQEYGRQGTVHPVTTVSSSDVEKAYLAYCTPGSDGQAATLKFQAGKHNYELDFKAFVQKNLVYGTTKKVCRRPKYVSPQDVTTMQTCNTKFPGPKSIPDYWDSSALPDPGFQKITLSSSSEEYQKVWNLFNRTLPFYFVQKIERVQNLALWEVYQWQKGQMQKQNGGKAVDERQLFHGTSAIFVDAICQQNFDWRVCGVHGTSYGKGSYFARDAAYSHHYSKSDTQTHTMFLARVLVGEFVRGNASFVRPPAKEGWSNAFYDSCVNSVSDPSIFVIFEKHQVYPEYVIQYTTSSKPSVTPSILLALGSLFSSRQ

[3] = target: T2, Poly [ADP-ribose] polymerase tankyrase-1 (Homo sapiens, UniProt O95271); assay: Inhibition of human TNKS1
T2 sequence (O95271 whole entry): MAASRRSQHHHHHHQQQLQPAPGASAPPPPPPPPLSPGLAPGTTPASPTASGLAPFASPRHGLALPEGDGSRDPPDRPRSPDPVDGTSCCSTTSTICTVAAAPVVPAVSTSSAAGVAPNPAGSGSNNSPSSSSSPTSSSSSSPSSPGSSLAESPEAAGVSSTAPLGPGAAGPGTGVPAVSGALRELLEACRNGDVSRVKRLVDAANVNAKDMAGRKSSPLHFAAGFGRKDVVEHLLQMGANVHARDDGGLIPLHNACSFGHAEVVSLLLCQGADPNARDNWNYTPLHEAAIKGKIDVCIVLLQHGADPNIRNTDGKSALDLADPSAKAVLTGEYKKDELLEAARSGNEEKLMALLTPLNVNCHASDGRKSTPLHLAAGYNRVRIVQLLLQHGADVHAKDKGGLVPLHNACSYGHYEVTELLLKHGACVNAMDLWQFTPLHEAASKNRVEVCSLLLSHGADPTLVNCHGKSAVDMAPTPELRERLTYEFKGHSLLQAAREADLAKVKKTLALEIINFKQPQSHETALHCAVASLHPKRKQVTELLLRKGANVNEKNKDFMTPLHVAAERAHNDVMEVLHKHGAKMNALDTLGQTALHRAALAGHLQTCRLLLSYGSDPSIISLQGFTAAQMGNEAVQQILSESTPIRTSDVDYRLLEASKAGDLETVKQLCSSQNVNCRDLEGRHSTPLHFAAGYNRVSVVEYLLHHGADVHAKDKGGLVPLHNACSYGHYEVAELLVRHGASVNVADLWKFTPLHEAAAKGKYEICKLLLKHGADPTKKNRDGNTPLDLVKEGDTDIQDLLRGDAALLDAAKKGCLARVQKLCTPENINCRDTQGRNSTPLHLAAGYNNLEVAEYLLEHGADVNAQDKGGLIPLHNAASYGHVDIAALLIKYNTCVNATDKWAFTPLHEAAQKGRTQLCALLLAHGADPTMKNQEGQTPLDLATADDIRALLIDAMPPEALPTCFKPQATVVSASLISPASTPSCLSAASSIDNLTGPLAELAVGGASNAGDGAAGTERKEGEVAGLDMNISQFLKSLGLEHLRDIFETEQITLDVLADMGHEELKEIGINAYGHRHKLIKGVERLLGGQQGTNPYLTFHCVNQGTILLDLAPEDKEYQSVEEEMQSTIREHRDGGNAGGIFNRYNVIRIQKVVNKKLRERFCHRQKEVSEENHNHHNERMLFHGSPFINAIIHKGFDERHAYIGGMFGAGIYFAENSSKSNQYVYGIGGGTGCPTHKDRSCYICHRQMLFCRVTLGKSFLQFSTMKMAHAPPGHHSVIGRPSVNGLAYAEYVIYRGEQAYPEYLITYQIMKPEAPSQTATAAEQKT

[4] = target: T3, Protein mono-ADP-ribosyltransferase PARP15 (Homo sapiens, UniProt Q460N3); assay: Inhibition of human N-terminal 6His-tagged PARP15 (460 to 656 residues) expressed in Escherichia coli Rosetta2 (DE3) cells using NAD+ as substrate incubated for 10 mins by fluorescence based analysis
T3 sequence (Q460N3 whole entry): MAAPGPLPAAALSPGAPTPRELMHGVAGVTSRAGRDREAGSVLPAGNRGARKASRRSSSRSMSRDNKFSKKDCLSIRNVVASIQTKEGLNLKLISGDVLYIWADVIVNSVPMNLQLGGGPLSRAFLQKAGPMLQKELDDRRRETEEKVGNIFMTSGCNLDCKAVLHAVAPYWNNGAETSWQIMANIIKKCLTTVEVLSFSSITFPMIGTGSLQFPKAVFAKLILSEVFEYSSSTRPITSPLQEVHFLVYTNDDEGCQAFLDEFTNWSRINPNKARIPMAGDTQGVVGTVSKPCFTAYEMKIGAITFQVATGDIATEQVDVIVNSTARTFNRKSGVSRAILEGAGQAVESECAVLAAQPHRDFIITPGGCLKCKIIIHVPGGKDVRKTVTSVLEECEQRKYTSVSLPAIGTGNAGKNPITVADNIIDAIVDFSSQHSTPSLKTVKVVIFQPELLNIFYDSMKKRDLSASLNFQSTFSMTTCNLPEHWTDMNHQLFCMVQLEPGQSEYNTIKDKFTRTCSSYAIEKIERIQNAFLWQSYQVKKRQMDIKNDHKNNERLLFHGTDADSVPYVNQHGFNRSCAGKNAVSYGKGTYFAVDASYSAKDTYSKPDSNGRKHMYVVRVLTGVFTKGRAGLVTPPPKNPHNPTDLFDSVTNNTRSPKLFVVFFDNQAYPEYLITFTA

HeLa = assay: Rescue of cell viability in human HeLa cells expressing wild type PARP10 at upto 10 uM incubated for 10 to 12 days by methylene blue dye based colony formation assay; type: functional

Chain of Poly [ADP-ribose] polymerase 2 (Q9UGN5 whole entry): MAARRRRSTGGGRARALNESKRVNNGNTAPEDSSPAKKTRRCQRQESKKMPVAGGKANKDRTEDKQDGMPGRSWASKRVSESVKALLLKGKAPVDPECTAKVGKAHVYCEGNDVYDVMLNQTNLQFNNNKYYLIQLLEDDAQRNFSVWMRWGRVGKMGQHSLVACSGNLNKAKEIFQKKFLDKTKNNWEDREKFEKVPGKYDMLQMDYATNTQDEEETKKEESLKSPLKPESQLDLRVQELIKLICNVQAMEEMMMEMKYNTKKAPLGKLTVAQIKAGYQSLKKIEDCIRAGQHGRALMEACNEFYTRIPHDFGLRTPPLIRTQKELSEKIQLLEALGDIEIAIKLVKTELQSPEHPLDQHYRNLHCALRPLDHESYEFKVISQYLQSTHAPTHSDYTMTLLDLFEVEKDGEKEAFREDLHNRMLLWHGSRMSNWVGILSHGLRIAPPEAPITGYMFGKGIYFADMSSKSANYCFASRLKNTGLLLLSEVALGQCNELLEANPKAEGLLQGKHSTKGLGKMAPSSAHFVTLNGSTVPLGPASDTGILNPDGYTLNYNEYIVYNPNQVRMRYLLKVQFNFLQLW

## NC(=O)c1ccc(OCC2CCC2)cc1
[1]
  IC50: 38 µM
[2]
  IC50: > 10 µM
[3]
  IC50: > 100 µM
[4]
  IC50: 2.4 µM
HeLa
  EC50: 0.59 µM
